ChEMBL document CHEMBL1146488, “Antineoplastic agents. 511. Direct phosphorylation of phenpanstatin and pancratistatin” (J Nat Prod, 2004)
In brackets after ≈: the same amount, converted by molar mass.

What was measured:
[1] = system: P388; test: Cytotoxicity against mouse P388 cells; format: functional; settings: read-out: ED50 (the source's name)
[2] = system: BXPC-3; test: Cytotoxicity against human BxPC3 cells; format: functional
[3] = system: MCF7; test: Cytotoxicity against human MCF7 cells; format: functional
[4] = system: SF-268; test: Cytotoxicity against human SF268 cells; format: functional
[5] = system: NCI-H460; test: Cytotoxicity against human NCI-H460 cells; format: functional
[6] = system: KM-20L2; test: Cytotoxicity against human KM20L2 cells; format: functional
[7] = system: DU-145; test: Cytotoxicity against human DU145 cells; format: functional
[8] = Solubility in water; format: physicochemical

SMILES | EC50 [1] | GI50 [2] | GI50 [3] | GI50 [4] | GI50 [5] | GI50 [6] | GI50 [7] | solubility [8]
O=C1N[C@H]2[C@H](O)[C@H](O)[C@@H](O)[C@H](O)[C@@H]2c2cc3c(c(O)c21)OCO3 [PANCRATISTATIN] | 0.017 µg/mL (≈ 0.0523 µM) | 0.02 µg/mL (≈ 0.0615 µM) | 0.023 µg/mL (≈ 0.0707 µM) | 0.014 µg/mL (≈ 0.043 µM) | 0.032 µg/mL (≈ 0.0984 µM) | 0.025 µg/mL (≈ 0.0769 µM) | 0.015 µg/mL (≈ 0.0461 µM) | 53 µg/mL (≈ 163 µM)
O=C1N[C@H]2[C@H](O)[C@H](O)[C@@H](O)[C@H](O)[C@@H]2c2cc3c(c(OP(=O)([O-])[O-])c21)OCO3.[Na+].[Na+] | 0.24 µg/mL | 0.2 µg/mL | 0.2 µg/mL | 0.079 µg/mL | 0.19 µg/mL | 0.17 µg/mL | 0.026 µg/mL | 20 µg/mL
O=C1N[C@H]2[C@H](OP(=O)([O-])[O-])[C@H](O)[C@@H](O)[C@H](O)[C@@H]2c2cc3c(c(O)c21)OCO3.[Zn+2] | 0.17 µg/mL | 0.27 µg/mL | 0.47 µg/mL | 0.38 µg/mL | 0.42 µg/mL | 0.3 µg/mL | 0.17 µg/mL | –
O=C1N[C@@H]2C(=C[C@H](O)[C@@H](O)[C@H]2O)c2cc3c(c(O)c21)OCO3 [NARCICLASINE] | 0.013 µg/mL (≈ 0.0423 µM) | 0.0035 µg/mL (≈ 0.0114 µM) | 0.0032 µg/mL (≈ 0.0104 µM) | 0.0031 µg/mL (≈ 0.0101 µM) | 0.0084 µg/mL (≈ 0.0273 µM) | 0.0032 µg/mL (≈ 0.0104 µM) | 0.0032 µg/mL (≈ 0.0104 µM) | –
C=C[C@H]1CN2CC[C@H]1C[C@H]2[C@H](O)c1ccnc2ccc(OC)cc12.O=C1N[C@H]2[C@H](OP(=O)(O)O)[C@H](O)[C@@H](O)[C@H](O)[C@@H]2c2cc3c(c(O)c21)OCO3 | 0.066 µg/mL | 0.23 µg/mL | 0.35 µg/mL | 0.28 µg/mL | 0.31 µg/mL | 0.22 µg/mL | 0.15 µg/mL | –
O=C1N[C@H]2[C@H](OP(=O)(O)O)[C@H](O)[C@@H](O)[C@H](O)[C@@H]2c2cc3c(c(O)c21)OCO3 | 0.047 µg/mL (≈ 0.116 µM) | 0.36 µg/mL (≈ 0.888 µM) | 0.43 µg/mL (≈ 1.06 µM) | 0.35 µg/mL (≈ 0.864 µM) | 0.42 µg/mL (≈ 1.04 µM) | 0.33 µg/mL (≈ 0.814 µM) | 0.2 µg/mL (≈ 0.494 µM) | –
C=C[C@H]1CN2CC[C@H]1C[C@@H]2[C@@H](O)c1ccnc2ccc(OC)cc12.O=C1N[C@H]2[C@H](OP(=O)(O)O)[C@H](O)[C@@H](O)[C@H](O)[C@@H]2c2cc3c(c(O)c21)OCO3 | 0.21 µg/mL | 0.34 µg/mL | 0.38 µg/mL | 0.27 µg/mL | 0.36 µg/mL | 0.23 µg/mL | 0.2 µg/mL | –
O=C1N[C@H]2[C@H](OP(=O)([O-])[O-])[C@H](O)[C@@H](O)[C@H](O)[C@@H]2c2cc3c(c(O)c21)OCO3.[Ca+2] | 0.21 µg/mL | 0.25 µg/mL | 0.36 µg/mL | 0.26 µg/mL | 0.27 µg/mL | 0.23 µg/mL | 0.12 µg/mL | –
O=C(O[C@H]1[C@H](O)[C@@H](O)[C@@H](O)[C@@H]2NC(=O)c3c(cc4c(c3O)OCO4)[C@H]21)c1ccccc1 [PHENPANSTATIN] | 0.0016 µg/mL (≈ 0.00373 µM) | 0.0019 µg/mL (≈ 0.00442 µM) | 0.00031 µg/mL (≈ 0.000722 µM) | 0.00055 µg/mL (≈ 0.00128 µM) | 0.0001 µg/mL (≈ 0.000233 µM) | 0.00037 µg/mL (≈ 0.000862 µM) | 0.00021 µg/mL (≈ 0.000489 µM) | –
O=C1N[C@H]2[C@H](OP(=O)([O-])O)[C@H](O)[C@@H](O)[C@H](O)[C@@H]2c2cc3c(c(O)c21)OCO3.[Na+] | 0.018 µg/mL | 0.18 µg/mL | 0.18 µg/mL | 0.12 µg/mL | 0.38 µg/mL | 0.24 µg/mL | 0.94 µg/mL | –
C1CNCCN1.O=C1N[C@H]2[C@H](OP(=O)(O)O)[C@H](O)[C@@H](O)[C@H](O)[C@@H]2c2cc3c(c(O)c21)OCO3 | 0.019 µg/mL | 0.31 µg/mL | 0.38 µg/mL | 0.27 µg/mL | 0.35 µg/mL | 0.24 µg/mL | 0.21 µg/mL | –
O=C(O[C@H]1[C@H](O)[C@H]2OP(=O)([O-])O[C@H]2[C@@H]2NC(=O)c3c(cc4c(c3O)OCO4)[C@H]21)c1ccccc1.[Na+] | 0.061 µg/mL | 0.25 µg/mL | 0.041 µg/mL | 0.17 µg/mL | 0.029 µg/mL | 0.13 µg/mL | 0.13 µg/mL | –
O=C1N[C@H]2[C@@H]3OP(=O)([O-])O[C@@H]3[C@@H](O)[C@H](O)[C@@H]2c2cc3c(c(O)c21)OCO3.[Na+] | 3.33 µg/mL | 3.3 µg/mL | 2.9 µg/mL | 2.9 µg/mL | 3.8 µg/mL | 3.7 µg/mL | 2.3 µg/mL | –
O=C1N[C@H]2[C@H](OP(=O)([O-])[O-])[C@H](O)[C@@H](O)[C@H](O)[C@@H]2c2cc3c(c(O)c21)OCO3.[Mg+2] | 0.02 µg/mL | 0.4 µg/mL | 0.44 µg/mL | 0.36 µg/mL | 0.42 µg/mL | 0.36 µg/mL | 0.22 µg/mL | –
O=C1N[C@H]2[C@H](OP(=O)(O)O)[C@H](O)[C@@H](O)[C@H](O)[C@@H]2c2cc3c(c(O)c21)OCO3.c1c[nH]cn1 | 0.063 µg/mL | 0.25 µg/mL | 0.33 µg/mL | 0.21 µg/mL | 0.25 µg/mL | 0.13 µg/mL | 0.13 µg/mL | –
O=C1N[C@@H]2C(=C[C@H](O)[C@H]3OP(=O)([O-])O[C@H]32)c2cc3c(c(O)c21)OCO3.[Na+] [SODIUM NARCISTATIN] | 0.012 µg/mL | 0.069 µg/mL | 0.059 µg/mL | 0.047 µg/mL | 0.058 µg/mL | 0.06 µg/mL | 0.031 µg/mL | –
O=C1N[C@H]2[C@H](OP(=O)([O-])O)[C@H](O)[C@@H](O)[C@H](O)[C@@H]2c2cc3c(c(O)c21)OCO3.[K+] | 0.025 µg/mL | 0.45 µg/mL | 0.46 µg/mL | 0.39 µg/mL | 0.4 µg/mL | 0.3 µg/mL | 0.22 µg/mL | –
O=C1N[C@H]2[C@H](OP(=O)([O-])O)[C@H](O)[C@@H](O)[C@H](O)[C@@H]2c2cc3c(c(O)c21)OCO3.[Li+] | 0.036 µg/mL | 0.3 µg/mL | 0.39 µg/mL | 0.28 µg/mL | 0.35 µg/mL | 0.25 µg/mL | 0.2 µg/mL | –
C1COCCN1.O=C1N[C@H]2[C@H](OP(=O)(O)O)[C@H](O)[C@@H](O)[C@H](O)[C@@H]2c2cc3c(c(O)c21)OCO3 | 0.27 µg/mL | 0.29 µg/mL | 0.4 µg/mL | 0.38 µg/mL | 0.46 µg/mL | 0.37 µg/mL | 0.18 µg/mL | –
